Experimental data published in patent US20230348362A1, “LIPID COMPOUNDS AND LIPID NANOPARTICLE COMPOSITIONS” (Suzhou Abogen Biosciences Co., Ltd., priority 2021, published 2023).

What was measured:
Type in all cases: physicochemical
[1] = Lipid nanoparticle size and polydispersity by dynamic light scattering; details: LNP of lipid/DSPC/cholesterol/PEG-lipid 50:10:38.5:1.5 encapsulating hEPO mRNA
Summary of the method: (§1)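 LNPs made from ionizable lipid/DSPC/cholesterol/PEG-lipid (50:10:38.5:1.5) and mRNA in citrate pH 4 by microfluidic mixing, lipid:mRNA about 10:1–30:1 w/w, then dialysed into DPBS and filtered. Size and PDI measured by DLS in backscatter mode; encapsulation efficiency measured by RiboGreen assay.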

[2] = Encapsulation efficiency of lipid nanoparticles, Quant-it Ribogreen RNA assay; details: LNP of lipid/DSPC/cholesterol/PEG-lipid 50:10:38.5:1.5 encapsulating hEPO mRNA
Summary of the method: as §1

[3] = Apparent pKa of LNP formulations, TNS fluorescence assay; details: LNP cationic lipid/DSPC/cholesterol/DMG-PEG 50/10/38.5/1.5 mol %
Protocol: As reported in literature, the apparent pKa of LNP formulations correlates with the delivery efficiency of LNPs for nucleic acids in vivo. The apparent pKa of each formulation was determined using an assay based on fluorescence of 2-(p-toluidino)-6-napthalene sulfonic acid (TNS). LNP formulations comprising of cationic lipid/DSPC/cholesterol/DMG-PEG (50/10/38.5/1.5 mol %) in PBS were prepared as described above. TNS was prepared as a 300 μM stock solution in distilled water. LNP formulations were diluted to 0.1 mg/mL total lipid in 3 mL of buffered solutions containing 50 mM sodium citrate, 50 mM sodium phosphate, 50 mM sodium borate, and 30 mM sodium chloride where the pH ranged from 3 to 9. An aliquot of the TNS solution was added to give a final concentration of […] and following vortex mixing fluorescence intensity was measured at room temperature in a Molecular Devices Spectramax iD3 spectrometer using excitation and mission wavelengths of 325 nm and 435 nm. A sigmoidal best fit analysis was applied to the fluorescence data and the pKa value was measured as the pH giving rise to half-maximal fluorescent intensity.

Row | polydispersity [1] | size (nm) [1] | Encapsulation Efficiency [2] | Apparent Pka [3] | Structure (SMILES)
1 | 0.062 | 63.7 nm | 95.7% | 5.872 | CCCCCCCCC(CCCCCCCC)COC(=O)CCCCCN(CCCCCC)CCN(CCCCCC(=O)OCC(CCCCCCCC)CCCCCCCC)C1CCC(O)CC1 (centres unmarked) [Compound 53]
2 | 0.078 | 98.67 nm | 87.20% | 6.423 | CCCCCCCCC(CCCCCCCC)COC(=O)CCCCCN(CCO)CCN(CCCCCC(=O)OCCCCCC)C1CCCCC1 [Compound 101]
3 | 0.093 | 67.92 nm | 88.53% | 6.545 | CCCCCCCCC(CCCCCC)CNC(=O)CCCCCCCN(CCO)CCN(CCCCC(COC(=O)CCCCCCC)COC(=O)CCCCCCC)C1CCCCC1 (centres unmarked) [Compound 235]
4 | 0.111 | 59.55 nm | 94.60% | 5.997 | CCCCCCCCC(CCCCCCCC)COC(=O)CCCCCN(CCO)CCN(CCCCC)CCCCCC(=O)OCC(CCCCCCCC)CCCCCCCC [Compound 124]
5 | 0.131 | 73.33 nm | 93.6% | 6.32 | CCCCCCCCCCCOC(=O)CCCCCN(CCN(CCO)CCCCCC(=O)OCC(CCCCCC)CCCCCCCC)C1CC1 (centres unmarked) [Compound 3]
6 | 0.052 | 76.91 nm | 91.15% | 6.463 | CCCCCCCCC(CCCCCC)CNC(=O)CCCCCCN(CCO)CCN(CCCCC(COC(=O)CCCCCCC)COC(=O)CCCCCCC)C1CCCCCCC1 (centres unmarked) [Compound 233]
7 | 0.112 | 88.09 nm | 95.04% | 6.674 | CCCCCCCCC(CCCCCC)COC(=O)CCCCCN(CC)CCN(CCO)CCCCC(COC(=O)CCCCCCC)COC(=O)CCCCCCC (centres unmarked) [Compound 157]
8 | 0.03 | 52.06 nm | 87.1% | 5.838 | CCCCCCCCC(CCCCCCCC)COC(=O)CCCCCN(CCO)CCN(CCCCCC(=O)OCC(CCCCCCCC)CCCCCCCC)C1CCC(C)CC1 (centres unmarked) [Compound 40]
9 | 0.118 | 57.08 nm | 95.20% | 6.858 | CCCCCCCCC(CCCCCCCC)COC(=O)CCCCCN(CC)CCN(CCO)CCCCCC(=O)OCC(CCCCCCCC)CCCCCCCC [Compound 27]
10 | 0.069 | 96.11 nm | 88.41% | 6.984 | CCCCCCCCC(CCCCCC)CNC(=O)CCCCCN(CCCCN(CCO)CCCCC(COC(=O)CCCCCCC)COC(=O)CCCCCCC)C1CCCCCC1 (centres unmarked) [Compound 198]
11 | 0.103 | 55.48 nm | 92.04% | 6.271 | CCCCCCCCCCCC(=O)OCCCCCN(CCN(CCO)CCCCCOC(=O)CC(CCCCCCCC)CCCCCCCC)C1CCCCCCC1 [Compound 95]
12 | 0.06 | 79.56 nm | 91.52% | 6.49 | CCCCCCCCC(CCCCCC)CNC(=O)CCCCCN(CCCCCO)CCN(CCCCC(COC(=O)CCCCCCC)COC(=O)CCCCCCC)C1CCCCCCC1 (centres unmarked) [Compound 210]
13 | 0.121 | 56.62 nm | 92.18% | 6.255 | CCCCCCCCCCCCCCCCOC(=O)CCCCCN(CCN(CCO)CCCCCC(=O)OCC(CCCCCCCC)CCCCCCCC)C1CCCCCCC1 [Compound 131]
14 | 0.086 | 81.46 nm | 89.05% | 6.745 | CCCCCCCCCCCCCCN(CCCCCCCCCCCCCC)C(=O)CCCCCN(CCO)CCN(CCCCCC(=O)OCCCCCCCCCCC)C1CCCCC1 [Compound 89]
15 | 0.058 | 76.29 nm | 89.14% | 6.789 | CCCCCCCCC(CCCCCC)CNC(=O)CCCCN(CCO)CCN(CCCCC(COC(=O)CCCCCCC)COC(=O)CCCCCCC)C1CCCCCCC1 (centres unmarked) [Compound 214]
16 | 0.121 | 57.96 nm | 94.10% | 6.044 | CCCCCCCCC(CCCCCCCC)COC(=O)CCCCCN(CCO)CCN(CCCCCC(=O)OCC(CCCCCCCC)CCCCCCCC)CCC(C)C [Compound 118]
17 | 0.057 | 69.16 nm | 90.39% | 6.687 | CCCCCCCCC(CCCCCC)CNC(=O)CCCCCN(CCO)CCN(CCCCC(COC(=O)CCCCCCC)COC(=O)CCCCCCC)C1CCCCCC1 (centres unmarked) [Compound 143]
18 | 0.093 | 49.69 nm | 89.3% | 5.802 | CCCCCCCCC(CCCCCCCC)COC(=O)CCCCCN(CCO)CCN(CCCCCC(=O)OCC(CCCCCCCC)CCCCCCCC)Cc1ccccc1 [Compound 36]
19 | 0.172 | 129.75 nm | 90.65% | 7.098 | CCCCCCCC(=O)OCC(CCCCN(CCC)CCCCN(CCO)CCCCC(COC(=O)CCCCCCC)COC(=O)CCCCCCC)COC(=O)CCCCCCC [Compound 184]
20 | 0.114 | 87.22 nm | 93.88% | 6.542 | CCCCCCCC(=O)OCC(CCCCN(CCO)CCCCN(CCCCC(COC(=O)CCCCCCC)COC(=O)CCCCCCC)C(C)C)COC(=O)CCCCCCC [Compound 189]
21 | 0.168 | 70.21 nm | 86.6% | 6.176 | CCCCCCCCC(CCCCCCCC)COC(=O)CCCCCN(CCO)CCN(CCCCCC(=O)OCC(CCCCCCCC)CCCCCCCC)C1CCC1 [Compound 10]
22 | 0.136 | 65.15 nm | 95.8% | 6.401 | CCCCCCCCC(CCCCCC)COC(=O)CCCCCN(CCO)CCN(CCCCCC(=O)OCC(CCCCCC)CCCCCCCC)C1CCCC1 (centres unmarked) [Compound 8]
23 | 0.051 | 63.5 nm | 90.9% | 6.402 | CCCCCCCCCCCOC(=O)CCCCCN(CCO)CCN(CCCCCC(=O)OCC(CCCCCCCC)CCCCCCCC)C1CCCCC1 [Compound 45]
24 | 0.005 | 126 nm | 91.32% | 6.732 | CCCCCCCCC(CCCCCCCC)CC(=O)NCCCCCN(CCN(CCO)CCCCCCOC(=O)C(CCCCCC)CCCCCCCC)C1CCC1 (centres unmarked) [Compound 70]
25 | 0.089 | 54.18 nm | 90.0% | 5.843 | CCCCCCCCC(CCCCCCCC)COC(=O)CCCCCN(CCO)CCN(CCCCCC(=O)OCC(CCCCCCCC)CCCCCCCC)CC1CCCC1 [Compound 35]
26 | 0.09 | 99.97 nm | 91.00% | 6.862 | CCCCCCCCCCCOC(=O)CCCCCN(CCN(CCO)CCCCC(COC(=O)CCCCCCC)COC(=O)CCCCCCC)C1CCC1 [Compound 182]
